Measured values published in a melting point compilation (Tetko et al.; mined from patent text by program, amines drawn as free bases though some values may be those of a salt).

Compound `CS(=O)(=O)OCC(C(=O)N1CCC(=C2c3ccc(Cl)cc3CCc3cccnc32)CC1)c1ccccc1` (configuration not stated) has a melting point of 111 to 112 °C. With `O=C1C2=C(CCCC2)C(=O)N1c1cccc(O)c1` the melting point was 196 to 198 °C. For `CCCOc1cc(C(=O)O)cc(N)c1C(=O)c1ccccc1`, the melting point was 220 to 222 °C. Work on `COc1ccc(C=NNS(=O)(=O)c2ccc(C)cc2)cc1` yielded a melting point of 103 to 105 °C. In the case of `Cn1ncc2nn(-c3cccc(C(F)(F)F)c3)c(=O)c(Cl)c21`, the melting point is reported as 156 to 158 °C. For `COc1ccc(C2=NN(CCCCCCBr)C(=O)[C@H]3CCCC[C@@H]23)cc1OC` (relative stereo), the melting point was 74 to 75 °C. In the case of `Oc1ccc2c(c1)CC(NCC(O)c1cccc(Cl)c1)CC2` (configuration not stated), the melting point is reported as 175 °C. For `CC(C)(Oc1ccc(C(=O)c2ccccc2)cc1)C(=O)O`, the melting point was 130 °C. Compound `C1CCC2NC3NC4CCCCC4NC3NC2C1` (configuration not stated) has a melting point of 148 to 155 °C. Compound `Cc1cc(N(C)CC(=O)N2CCN(Cc3ccc4c(c3)OCO4)CC2)ccc1Oc1ccc(NC(=O)c2ccc(C(F)(F)F)cc2)cn1` has a melting point of 128 to 131 °C. `CCOC(=O)c1ccc(OCC2CN(c3ccc(S(C)(=O)=O)nn3)CCO2)cc1` (configuration not stated) gave a melting point of 197 °C. In the case of `CC(C)(C)Sc1cccc(CCC(O)c2ccccc2)c1NC(=O)CC1c2ccccc2Oc2ccccc21` (configuration not stated), the melting point is reported as 145 to 147 °C. Work on `O=C(NCCCOc1cc(CN2CCCCC2)ccn1)c1cn[nH]c1` yielded a melting point of 117 to 119 °C. `CNC(=S)N1CCc2cc(S(=O)(=O)N3CC(c4ccccc4)NC3=O)ccc21` (configuration not stated) showed a melting point of 217 to 219 °C. `CCC(COCc1cccc(Cl)c1)n1cnc2c(N)nc3ccccc3c21` (configuration not stated) showed a melting point of 60 to 62 °C. `COc1cc(C(=O)NCc2ccccc2)cc(NC(=O)c2ccccc2)n1` gave a melting point of 132 to 133 °C. `CC(=O)c1cccc2oc(C(=O)Nc3ccc(-c4ccc(S(=O)(=O)NC(C(=O)O)C(C)C)cc4)cc3)c(C)c12` (configuration not stated) showed a melting point of 228 to 235 °C. Work on `CCCCCCCCN(SN(C(=O)NC(=O)c1ccccc1[N+](=O)[O-])c1ccc(Oc2ncc(Br)cn2)c(Cl)c1)C(=O)OC` yielded a melting point of 51 to 54 °C. Work on `O=C1O[C@](CCc2cccc(O)c2)(C2CCCC2)CC(O)=C1N(c1ccccc1)c1ccccc1` yielded a melting point of 90 to 92 °C. `O=c1ccc2c3ccccc3[nH]c2n1-c1ccccc1` showed a melting point of 308 to 309 °C. Compound `N#CCCc1cccc(O)c1` has a melting point of 64 to 66 °C. Compound `CC(C)(S)CNC(=O)CCC(=O)O` has a melting point of 86 to 87 °C. Compound `COC(=O)C(C)Oc1ccc(NC(=O)COCc2ccccc2)cc1` (configuration not stated) has a melting point of 67 to 70 °C. In the case of `CC(C)NCCC(CCN1CCCCC1)(C(N)=O)c1ccccc1Cl` (configuration not stated), the melting point is reported as 134 to 137 °C. `CC(NC(=O)CCCl)c1ccc(Cl)cc1` (configuration not stated) gave a melting point of 86 to 91 °C. `Cc1[nH]c(C(=O)C(Cl)(Cl)Cl)c2c1-c1ccc(Cl)cc1C(c1ccccc1F)=NC2` showed a melting point of 222 to 225 °C. `CN(c1ccccc1)c1ncnc2c(I)cnn12` gave a melting point of 193 °C. With `CC(=O)Nc1cc(C(C)(C)C)ccc1N1CCOCC1` the melting point was 112 to 113 °C. For `CC(CCCn1c(C)nc2c(N)nc3ccccc3c21)=NO`, the melting point was 264 to 266 °C. `CS(=O)(=O)c1ccc(-n2nc(C(F)(F)F)cc2-c2nc3cc(F)ccc3s2)cc1` showed a melting point of 204 to 205 °C. In the case of `COC(=O)c1ccc(CBr)c(N(C)C(=O)OC)c1`, the melting point is reported as 99 to 102 °C. Compound `CC(=O)Nc1c(C#N)oc2ccccc12` has a melting point of 164 to 167 °C. Work on `CCCCCCC(C(=O)O)n1cc(Cc2ccccc2)c2cc(-c3ccccc3-c3nn[nH]n3)ccc21` (configuration not stated) yielded a melting point of 108 to 112 °C. Compound `CC(C)(C)OC(=O)N1CC2CC1C(=O)S2` (configuration not stated) has a melting point of 91 °C. In the case of `Cn1nc(N)nc1NCCCOc1cccc(CN2CCCCC2)c1`, the melting point is reported as 94 to 95 °C. With `Oc1ccc(C2N(c3ccccc3)CCN2c2ccccc2)c2cccnc12` the melting point was 190 to 196 °C. Compound `CCc1cccc2c(O)cnnc12` has a melting point of 160 to 161 °C. With `Cc1cc(-c2ccc(NS(C)(=O)=O)cc2)cc2ccc(=O)[nH]c12` the melting point was 340 to 343 °C. Compound `NNc1ccnc(-c2cccc(I)c2)n1` has a melting point of 179 to 181 °C. Compound `CCC(=O)Nc1ccc2ncnc(Nc3cccc(Br)c3)c2c1` has a melting point of 265 to 266 °C. Work on `O=C(O)c1cc(-c2ccc3c(c2)CCO3)nn(Cc2ccc(Cl)cc2)c1=O` yielded a melting point of 200 to 210 °C. For `COc1cc(CN2CCc3cc(OCc4ccccc4)c(OC)cc3C2)cc(OC)c1`, the melting point was 95 to 96 °C. Work on `CC1=CC(c2cccc(F)c2)C2=C(CCCC2=O)N1` (configuration not stated) yielded a melting point of 216 to 218 °C. Work on `O=C(O)c1ccc(O)c(OCc2ccccc2)c1` yielded a melting point of 167 to 171 °C. In the case of `COc1nc(C)nc(NC(=O)NS(=O)(=O)c2cccnc2Oc2ccccc2)n1`, the melting point is reported as 176 to 178 °C. Compound `O=S(=O)(CCN1CCOCC1)OCCOc1ccn(-c2ccc(Cl)c(Cl)c2)n1` has a melting point of 120 to 122 °C. In the case of `CCCCc1c(C)cc(C)cc1O`, the melting point is reported as 65 to 67 °C. For `O=c1[nH]c2ncc(-c3ccc(-c4nc[nH]n4)cc3)nc2n1CC1CCCCC1`, the melting point was 336 to 338 °C. In the case of `Cc1cn(-c2cc(NC(=O)c3ccc(C)c(C#Cc4ccc(NC5CC5)nn4)c3)cc(C(F)(F)F)c2)cn1`, the melting point is reported as 226 to 228 °C. For `CCC(CC)Nc1nc(C)nc(N2CCc3cc(Cl)cc(Cl)c32)c1C#N`, the melting point was 163 to 165 °C. With `CCC(=O)CNC(=O)CSc1cnc(NC(C)=O)s1` the melting point was 195 to 196 °C. `CN(C)C=NC(=O)c1c(N2CCN(Cc3ccccc3)CC2)nn2c(-c3cccc(C(F)(F)F)c3)ccnc12` gave a melting point of 140 to 142 °C. Work on `CCOC(=O)c1sc(-n2ccc(OCC3CC3)cc2=O)nc1C` yielded a melting point of 180 to 183 °C. Work on `COC(=O)c1nn(S(=O)(=O)c2ccc(C)cc2)c2ccccc12` yielded a melting point of 163 to 165 °C. With `O=C(O)c1ccc(Cc2ccccc2)cn1` the melting point was 145 to 147 °C. Work on `CCCC(C)(COS(N)(=O)=O)COS(N)(=O)=O` yielded a melting point of 92 to 94 °C. For `CCOc1cc2c(c3c1OC(C)(C)C3)C(c1ccccc1)=[N+]([O-])C(C)(C)C2`, the melting point was 125 to 126 °C. `C#CCNC(=O)N1CC(Oc2ccc(Br)cc2)C1` showed a melting point of 120 to 122 °C. With `CCCCOc1cc(/C=C(\OCC)C(=O)O)ccc1OCCc1ccc(OS(=O)(=O)CCCC)cc1OC` the melting point was 90 °C. With `Cc1cccc(C2(O)CCN(c3ccc(O)nn3)CC2)c1` the melting point was 265 °C. `CCCc1c(OCc2ccc(C=CC(=O)O)cc2OC)ccc(C(C)=O)c1O` showed a melting point of 144 to 146 °C. `NC(=O)CON=C(C(=O)O)c1ccco1` showed a melting point of 143 to 145 °C. For `c1ccc(Cn2ccc(CN3CCC(c4ccccc4)(c4ccccc4)CC3)n2)cc1`, the melting point was 167 to 168 °C. Work on `Cc1nc(-n2ccn(Cc3ccc(F)cc3)c2=O)sc1C(=O)NCc1ccccc1` yielded a melting point of 167 to 168 °C. For `Cc1ccn2c(=Nc3ccncc3)snc2c1`, the melting point was 144 to 145 °C. Compound `COc1ccc(-c2c(Cl)c(CNC(C)(C)C)nc3sc4c(c23)CCN(C(=O)c2ccccc2)C4)cc1OC` has a melting point of 204 to 205 °C. `Cc1cccc(C(=O)Nc2c[nH]nc2C(=O)NCC(O)Cc2ccccc2)n1` (configuration not stated) gave a melting point of 184 to 185 °C. In the case of `CC(C)n1nc(-c2sc(C(=O)N(C)C)nc2-c2ccccc2)ccc1=O`, the melting point is reported as 141 to 144 °C. For `O=C(NCCCN1CCN(Cc2ccc(Cl)cc2)CC1)NC1CCCCC1`, the melting point was 109 to 112 °C. In the case of `CCn1cc(C(=O)O)c(=O)c2cc(F)c(N3CCC(CNC4CC4)C3)nc21` (configuration not stated), the melting point is reported as 271 to 274 °C. With `O=c1c(Br)c(Br)cnn1-c1cccc(C(F)(F)F)c1` the melting point was 158 to 175 °C. Work on `CCOC(=O)C1=Cc2cc(C(=O)Cc3ccccc3)ccc2OC1C(F)(F)F` (configuration not stated) yielded a melting point of 136 to 138 °C.
